In patent publication US11938121B2, “Treatment of infections and biofilm formation using a cellulose synthase inhibitor” (Purdue Research Foundation, priority 2020, dated 2024):

Biological target: T1, YFP-AtCESA6 cellulose synthase complexes (CSCs) in root epidermal cells (Arabidopsis thaliana, UniProt Q94JQ6)
T1 construct: expressed in transfected cells; host or cells: transgenic Arabidopsis thaliana YFP-AtCESA6 seedlings (total protein extract for DARTS; root epidermal cells for imaging)
Assay: Spinning-disk confocal live-cell imaging of CSC trafficking
Assay type: cell-based
Conditions: 6 μM
Experimental: For SDCM live cell imaging, seedlings were grown vertically for 5 d, and images were taken from the 2nd or 3rd epidermal cell below the first obvious root hair in the root elongation zone. Two thin strips of double-sided adhesive tape were placed on top of glass slides approximately 2 cm apart. 100 μl of ½-strength MS liquid growth medium containing 0.1% DMSO or 6 μM of ES20-1 was applied to the slide, and seedlings were mounted in the liquid medium. A 22×40 mm cover glass was placed on top of the double-sided tape for imaging. For longer term imaging during CESA velocity analysis, seedlings were mounted on a piece of 1-mm thick 0.6% Phytagel pad affixed to the glass slide to minimize compression and liquid evaporation.
To examine the cellular localization of YFP-AtCESA6 and YFP-AtCESA6; ManI-CFP, SDCM imaging was performed using a CSU-X1-A1 Yokogawa scanning unit mounted on an Olympus IX-83 microscope equipped with a 100×/1.4NA UPlanSApo oil objective (Olympus) and an Andor iXon Ultra 897BV EMCCD camera (Andor Technology). YFP and CFP fluorescence was excited with 515-nm and 445-nm laser lines and emission collected through 542/27-nm and 479/40-nm filters, respectively.
For fluorescence recovery after photobleaching (FRAP) experiments, images were collected using a Zeiss Observer Z.1 microscope, equipped with a Yokogawa CSU-X1 head and a 100×/1.46 NA PlanApo objective (Zeiss). For the PM-localized CESA6 FRAP, photobleaching was performed with a Vector scanner (Intelligent Imaging Innovations) with a 515-nm laser line at 100% power and 1 ms/scan. Timelapse images were collected at the PM with a 10-s interval for 64 frames, with photobleaching in a small region (44.2 μm^2) after the 4th frame, and recovery for total 10 min.
Image analysis was performed using ImageJ. For CESA particle density analyses, regions of interest (ROIs) without abundant Golgi signals were chosen using the Freehand selection tool. CESA particles were detected automatically on 8-bit images using the Find Maxima tool with the same noise threshold for all images. CESA particle density for each ROI was calculated by dividing the number of particles by the ROI area. To analyze CESA particle dynamics, 5-min time-lapse series with 5-s intervals were collected. Average intensity projections were generated to identify the trajectories of CSC particles. Image drift was corrected using the StackReg plugin (Thevenaz et al., 1998). Kymographs were generated, and the velocities of CESA particles were measured as the reciprocal of the slope of individual CESA particles in the kymographs. To quantify cortical vesicles, 1 μm z-series stack with 0.2 μm as the step size and 20-s time-lapses were collected. The focal plane at 0.4 μm below the PM was used for cortical SmaCC analysis. Small particles showing motility in time-lapse series were considered to be SmaCCs. For the FRAP assay of PM-localized CSCs, a smaller area (16 μm^2) within the bleached region was used for analyses. The CSC delivery events during the first 5 min of recovery were manually counted according to the criteria described previously (Li et al., Proc. Natl. Acad Sci. USA, 2016, 113, 11348-11353). […] The CSC delivery rate was calculated by dividing the number of delivery events by the measured area and time.

T1 sequence (O48946 whole entry): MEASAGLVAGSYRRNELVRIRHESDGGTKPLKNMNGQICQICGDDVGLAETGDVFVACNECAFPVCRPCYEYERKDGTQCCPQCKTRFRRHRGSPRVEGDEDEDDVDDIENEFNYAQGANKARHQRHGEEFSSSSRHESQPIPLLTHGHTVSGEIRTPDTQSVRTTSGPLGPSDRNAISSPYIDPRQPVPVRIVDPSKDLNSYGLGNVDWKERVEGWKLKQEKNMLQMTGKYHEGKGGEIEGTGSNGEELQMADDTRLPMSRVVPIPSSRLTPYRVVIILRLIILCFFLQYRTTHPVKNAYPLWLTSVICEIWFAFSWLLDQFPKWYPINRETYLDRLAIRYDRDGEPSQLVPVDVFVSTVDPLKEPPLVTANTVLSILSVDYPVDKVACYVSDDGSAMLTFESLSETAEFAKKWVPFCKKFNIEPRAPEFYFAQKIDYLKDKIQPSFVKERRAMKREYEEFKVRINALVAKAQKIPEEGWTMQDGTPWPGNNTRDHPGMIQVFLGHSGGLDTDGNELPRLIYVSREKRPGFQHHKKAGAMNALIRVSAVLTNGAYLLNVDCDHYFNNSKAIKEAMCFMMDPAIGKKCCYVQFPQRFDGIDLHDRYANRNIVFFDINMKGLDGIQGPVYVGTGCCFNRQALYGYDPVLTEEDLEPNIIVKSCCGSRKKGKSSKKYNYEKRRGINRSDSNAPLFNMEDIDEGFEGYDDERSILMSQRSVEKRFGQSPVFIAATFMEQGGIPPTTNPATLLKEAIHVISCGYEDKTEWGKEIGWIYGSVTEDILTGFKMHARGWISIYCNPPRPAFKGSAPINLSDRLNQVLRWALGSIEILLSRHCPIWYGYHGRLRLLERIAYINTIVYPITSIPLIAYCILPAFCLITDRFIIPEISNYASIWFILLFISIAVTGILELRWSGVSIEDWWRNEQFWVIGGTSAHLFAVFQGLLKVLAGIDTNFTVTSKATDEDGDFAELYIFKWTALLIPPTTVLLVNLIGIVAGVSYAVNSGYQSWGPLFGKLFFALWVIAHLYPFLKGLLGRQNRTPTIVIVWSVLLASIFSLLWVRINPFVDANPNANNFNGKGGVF
T1 sequence (Q941L0 whole entry, further chain): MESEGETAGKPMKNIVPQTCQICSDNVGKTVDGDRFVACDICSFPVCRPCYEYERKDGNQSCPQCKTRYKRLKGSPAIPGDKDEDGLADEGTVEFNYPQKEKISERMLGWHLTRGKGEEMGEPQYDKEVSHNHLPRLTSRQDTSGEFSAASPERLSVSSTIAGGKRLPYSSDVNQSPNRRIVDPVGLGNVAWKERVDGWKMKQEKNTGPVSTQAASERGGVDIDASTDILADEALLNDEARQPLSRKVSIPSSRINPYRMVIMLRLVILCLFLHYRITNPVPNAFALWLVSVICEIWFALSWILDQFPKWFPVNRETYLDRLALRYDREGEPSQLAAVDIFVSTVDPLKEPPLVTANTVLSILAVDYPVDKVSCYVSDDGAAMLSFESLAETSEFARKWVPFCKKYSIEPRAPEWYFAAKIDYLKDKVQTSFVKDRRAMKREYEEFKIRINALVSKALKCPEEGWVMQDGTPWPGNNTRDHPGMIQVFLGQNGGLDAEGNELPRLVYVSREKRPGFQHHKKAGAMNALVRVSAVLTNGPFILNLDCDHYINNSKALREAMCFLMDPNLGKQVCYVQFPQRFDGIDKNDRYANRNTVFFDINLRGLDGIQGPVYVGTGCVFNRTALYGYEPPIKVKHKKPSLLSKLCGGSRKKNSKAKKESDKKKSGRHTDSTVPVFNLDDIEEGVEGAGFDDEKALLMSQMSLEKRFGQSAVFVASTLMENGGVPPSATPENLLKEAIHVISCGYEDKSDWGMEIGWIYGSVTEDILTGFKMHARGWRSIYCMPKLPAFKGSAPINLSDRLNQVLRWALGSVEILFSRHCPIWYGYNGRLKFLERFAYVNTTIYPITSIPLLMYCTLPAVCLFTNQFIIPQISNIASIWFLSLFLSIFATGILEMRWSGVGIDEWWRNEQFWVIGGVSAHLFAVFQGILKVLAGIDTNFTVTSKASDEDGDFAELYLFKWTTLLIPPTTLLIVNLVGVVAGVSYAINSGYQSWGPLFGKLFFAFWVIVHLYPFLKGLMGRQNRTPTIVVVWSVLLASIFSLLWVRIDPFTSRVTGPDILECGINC
T1 sequence (Q94JQ6 whole entry): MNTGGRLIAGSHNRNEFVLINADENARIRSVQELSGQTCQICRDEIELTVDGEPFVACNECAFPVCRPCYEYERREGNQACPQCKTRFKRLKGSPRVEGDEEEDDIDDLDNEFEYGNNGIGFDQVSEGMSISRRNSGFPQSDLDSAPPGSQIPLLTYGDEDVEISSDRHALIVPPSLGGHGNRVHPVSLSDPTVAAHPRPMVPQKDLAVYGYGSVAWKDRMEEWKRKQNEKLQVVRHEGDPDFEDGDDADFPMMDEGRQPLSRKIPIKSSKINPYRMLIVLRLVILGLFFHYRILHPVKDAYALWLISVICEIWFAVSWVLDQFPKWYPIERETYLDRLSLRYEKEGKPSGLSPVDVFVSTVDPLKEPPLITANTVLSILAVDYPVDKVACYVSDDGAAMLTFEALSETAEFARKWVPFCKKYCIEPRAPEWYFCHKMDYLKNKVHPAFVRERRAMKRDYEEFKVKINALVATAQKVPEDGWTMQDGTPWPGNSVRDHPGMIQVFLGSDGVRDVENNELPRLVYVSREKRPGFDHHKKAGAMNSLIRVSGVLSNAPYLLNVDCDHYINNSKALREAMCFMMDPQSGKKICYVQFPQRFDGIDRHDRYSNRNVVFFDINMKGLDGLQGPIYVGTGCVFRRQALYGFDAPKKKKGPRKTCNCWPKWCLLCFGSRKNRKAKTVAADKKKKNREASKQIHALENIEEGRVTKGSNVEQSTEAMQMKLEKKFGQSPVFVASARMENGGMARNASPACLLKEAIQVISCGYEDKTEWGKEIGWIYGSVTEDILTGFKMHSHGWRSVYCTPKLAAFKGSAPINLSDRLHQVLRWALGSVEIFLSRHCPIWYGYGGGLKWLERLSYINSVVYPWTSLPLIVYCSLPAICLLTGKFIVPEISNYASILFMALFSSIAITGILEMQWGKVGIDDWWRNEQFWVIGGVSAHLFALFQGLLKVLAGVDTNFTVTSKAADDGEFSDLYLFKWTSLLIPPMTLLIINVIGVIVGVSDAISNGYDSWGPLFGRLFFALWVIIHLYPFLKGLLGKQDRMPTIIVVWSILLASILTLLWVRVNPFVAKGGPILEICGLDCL

Cc1ccccc1C(=O)NNC(=S)NC(=O)c1ccccc1 [ES20-1]
reduction of CSC delivery rate to PM (FRAP) (5 min recovery after photobleaching, vs DMSO): ~35%
CSC delivery rate to PM (FRAP) (5 min recovery, mean±SE, n=10 cells): 1.41±0.19 particle/μm^2/h
abundance of cortical SmaCCs (10 min, mean±SE, n=24 cells): 7.07±0.34 particle/100 μm^2
abundance (density) of CSCs at the PM (10 min, mean±SE, n=32 cells): 0.64±0.03 particle/μm^2
decrease of abundance of CSCs at the PM (10 min, vs DMSO): ~30%
increase of abundance of cortical SmaCCs (10 min, vs DMSO): ~30%
velocity of CSC particles at the PM (30 min, mean±SE, n=325): 0.152 ± 0.005 ×10⁻⁶ cm/s
decrease of velocity of CSC particles at the PM (30 min, vs DMSO): ~35%
integrated fluorescence intensity of Golgi-localized YFP-AtCESA6 (1 h, mean±SE, n=55): 8684.50±535.60
integrated fluorescence intensity of ManI-CFP (1 h, same cell): not affected
increase of integrated fluorescence intensity of Golgi-localized YFP-AtCESA6 (1 h, vs DMSO): more than 25%
